Like-named read-outs stand apart in the source and are kept apart here.
Legend:
[1] = for Viscosity in centipoises at 1 Hr. / Viscosity in centipoises at 4 Hrs. / Viscosity in centipoises at 6 Min. / Viscosity in centipoises at 21-28 Hrs. / Viscosity in centipoises at 0: additive at 3 percent weight; for gel inhibition / stabilization of aqueous dispersion (in words): conclusion from Tables II and III
[2] = pH of the aqueous dispersion; assay type: physicochemical; conditions: for Initial Dispersion pH: additive at 3 percent weight in Control dispersion; for pH (MEA At 3%): 3% MEA
[3] = thermodynamic; cited from earlier work

Row | Viscosity in centipoises at 1 Hr. ([1]; 1 Hr.) [centipoises] | Viscosity in centipoises at 4 Hrs. ([1]; 4 Hrs.) [centipoises] | Viscosity in centipoises at 6 Min. ([1]; 6 Min.) [centipoises] | Viscosity in centipoises at 0 ([1]; time 0) [centipoises] | Initial Dispersion pH [2] | Compound | other results
1 | 975 | 2100 | 600 | 500 | 7.0 | O.O.O.O.O.O.O.O=P([O-])([O-])O.[Na+].[Na+] [Disodium phosphate . 7H2 O] | –
2 | 875 | 1900 | 550 | 425 | 7.2 | O=P([O-])([O-])O.[Na+].[Na+] [Disodium phosphate anhydrous] | –
3 | 900 | 1300 | 600 | 500 | – | O=P(O)(O)OP(=O)(O)O [Tetrasodium pyrophosphate . 10H2 O] | –
4 | 850 | 1500 | 600 | 450 | 7.7 | O.O.O.O.O.O.O.O.O.O.O.O.O=P([O-])([O-])[O-].[Na+].[Na+].[Na+] [Trisodium phosphate . 12H2 O] | –
5 | 800 | 1800 | 650 | 600 | 6.6 | NC(N)=O [Urea] | –

Second part, the compound before the results:

Row | Compound | Viscosity in centipoises at 1 Hr. ([1]; 1 Hr.) [centipoises] | Viscosity in centipoises at 4 Hrs. ([1]; 4 Hrs.) [centipoises] | Viscosity in centipoises at 6 Min. ([1]; 6 Min.) [centipoises] | Viscosity in centipoises at 0 ([1]; time 0) [centipoises] | Initial Dispersion pH [2] | other results
6 | N.N.O=C(O)O [Ammonium carbonate] | – | – | – | – | – | Viscosity in centipoises at 1 Hr. ([1]; 1 Hr., listed as Ammonium carbonate (20%)): 850 centipoises; Viscosity in centipoises at 1 Hr. ([1]; 1 Hr., listed as Ammonium carbonate (100%)): 525 centipoises; Viscosity in centipoises at 4 Hrs. ([1]; 4 Hrs., listed as Ammonium carbonate (20%)): 1900 centipoises; Viscosity in centipoises at 4 Hrs. ([1]; 4 Hrs., listed as Ammonium carbonate (100%)): 800 centipoises; Viscosity in centipoises at 6 Min. ([1]; 6 Min., listed as Ammonium carbonate (20%)): 575 centipoises; Viscosity in centipoises at 6 Min. ([1]; 6 Min., listed as Ammonium carbonate (100%)): 350 centipoises; Viscosity in centipoises at 21-28 Hrs. ([1]; 21-28 Hrs.): gel; Viscosity in centipoises at 0 ([1]; time 0, listed as Ammonium carbonate (20%)): 475 centipoises; Viscosity in centipoises at 0 ([1]; time 0, listed as Ammonium carbonate (100%)): 300 centipoises; longer term storage of the aqueous dispersion (in words) ([1]; longer term storage): evidence of polymerization and gas evolution
7 | N [Ammonium hydroxide] | 550 | 575 | 400 | 400 | – | Viscosity in centipoises at 21-28 Hrs. ([1]; 21-28 Hrs.): 750 centipoises; gel inhibition / stabilization of aqueous dispersion (in words) [1]: good stabilization results
8 | OCCNCCO [Diethanolamine] | 750 | 875 | – | 600 | 9.0 | –
9 | CN(C)C=O [Dimethyl formamide] | 900 | 3100 | 500 | 475 | – | –
10 | NCCN [Ethylenediamine, diaminoethane] | 525 | 500 | 500 | 450 | – | pKa at 25° C. [3]: greater than 8.0; gel inhibition / stabilization of aqueous dispersion (in words) [1]: superior gel inhibitors
11 | C1N2CN3CN1CN(C2)C3 [Hexamethylene tetramine] | 950 | 2000 | 550 | 500 | 6.7 | –
12 | NCCO [Monoethanolamine, 2-aminoethanol] | – | – | – | – | – | pH (MEA At 3%) ([2]; 1 Hr.): 9.1; pH (MEA At 3%) ([2]; 4 Hrs.): 9.1; pH (MEA At 3%) ([2]; 6 Min.): 9.2; pH (MEA At 3%) ([2]; 21-28 Hrs.): 8.7; pH (MEA At 3%) ([2]; time 0): 9.3; Viscosity with Monoethanolamine (MEA) ([1]; 1.5% MEA in Control dispersion, time 0): 610 Centipoises; Viscosity with Monoethanolamine (MEA) ([1]; 1.5% MEA, 1 Hr.): 760 Centipoises; Viscosity with Monoethanolamine (MEA) ([1]; 1.5% MEA, 4 Hrs.): 1125 Centipoises; Viscosity with Monoethanolamine (MEA) ([1]; 1.5% MEA, 6 Min.): 625 Centipoises; Viscosity with Monoethanolamine (MEA) ([1]; 2% MEA in Control dispersion, time 0): 650 Centipoises; Viscosity with Monoethanolamine (MEA) ([1]; 2% MEA, 1 Hr.): 750 Centipoises; Viscosity with Monoethanolamine (MEA) ([1]; 2% MEA, 4 Hrs.): 925 Centipoises; Viscosity with Monoethanolamine (MEA) ([1]; 2% MEA, 6 Min.): 700 Centipoises; Viscosity with Monoethanolamine (MEA) ([1]; 3% MEA in Control dispersion, time 0): 625 Centipoises; Viscosity with Monoethanolamine (MEA) ([1]; 3% MEA, 1 Hr.): 700 Centipoises; Viscosity with Monoethanolamine (MEA) ([1]; 3% MEA, 4 Hrs.): 750 Centipoises; Viscosity with Monoethanolamine (MEA) ([1]; 3% MEA, 6 Min.): 700 Centipoises; Viscosity with Monoethanolamine (MEA) ([1]; 3% MEA, 21-28 Hrs.): 1150 Centipoises
13 | C1COCCN1 [Morpholine, tetrahydro-p-oxazine] | 725 | 800 | 525 | 550 | 8.7 | Viscosity in centipoises at 21-28 Hrs. ([1]; 21-28 Hrs.): 2700 centipoises
14 | CCN1CCOCC1 [N-Ethylmorpholine] | – | – | – | – | – | pKa at 25° C. [3]: 7.67
15 | C1CCNCC1 [Piperidine] | 725 | 800 | 650 | 600 | 9.9 | –
16 | [K+].[OH-] [Potassium hydroxide] | – | – | – | – | – | Viscosity in centipoises at 21-28 Hrs. ([1]; 21-28 Hrs.): 1450 centipoises
17 | CC(O)CN(CC(C)O)CC(C)O (stereo not shown) [Triisopropanolamine] | – | – | – | – | – | pKa at 25° C. [3]: 7.86

Source: US4145296A, “Weather-durable aqueous fire retardant stabilized against gelation” (priority 1977, dated 1979)
